Measured values as given in patent US7767842B2, “Class of γδ T cells activators and use thereof” (Innate Pharma SA, priority 2002, dated 2010).
Like-named read-outs stand apart in the source and are kept apart here.

Experiments:
[1] = system: primary polyclonal human Vγ9Vδ2 T cells; assay: Cytokine release assay: TNFα release from γδ T cells; type: cell-based
Procedure: Cells (primary polyclonal human Vγ9Vδ2 T cells which have been expanded in vitro and stored frozen at day 12-15 of expansion) are thawed and rinsed twice and centrifuged. Upon elimination of supernatant and resuspension of cells, the cells are incubated for 24 h at 37° C. in the presence of IL2 100 IU/ml (final concentration). The cells are washed and centrifuged, following which the supernatant is eliminated and the cells are resuspended and adjusted to the adequate final concentration. The cells are added to the wells of a 96-well plate.
To one row of wells is added a standard dilution series of […] (BrHPP). Compounds to be tested, in this case (E)-4-hydroxy-3-methyl-2-butenyl pyrophosphate (HDMAPP) and the N-HDMAPP compound of the invention are added to experimental wells, after several dilutions.
Full plates are incubated 24 hours at 37° C. for stimulation of the γδ cells with the test compound and reference compounds, in this case N-HDMAPP, BrHPP and HDMAPP, as further described below. After this time, 100 μl of culture supernatant is taken for TNFα dosage. Measurement of the released TNFα dosage is performed as described by the manufacturer's instruction in the TNFα enzyme immunoassay kit (ref. 11121, Immunotech—Beckman Coulter). OD at 405 nm is read, the OD being proportional to the concentration of released TNFα in the culture supernatant. The data are processed with the Excel software to compare concentration of test compound versus concentration of TNFα and for the calculation of the EC50 for each test compound.
The bioactivity of the compound N-HDMAPP was assessed using a TNFα release assay as described above. Compounds BrHPP and HDMAPP were included for purpose of comparison. […] As will be appreciated, any other suitable assays such as cell amplification may be used in assessing compounds.

[2] = system: γδ T cells; conditions: at best; Wilhelm et al., 2003; cited from earlier work
[3] = 24 hours stimulation at 37° C., TNFα enzyme immunoassay, relative screening test, read-out: in vitro EC50, TNFα release

**Q.** Which results are given for “(E)-4-hydroxy-3-methylbut-2-enyl pyrophosphoramidate [N-HDMAPP]”?
**A.** EC50 [1, 3]: 0.63 nM; maximum TNFα release ([1]; maximum level, FIG. 1): over 1800 pg/ml; increased potency over the most potent compounds tested so far ([1]; ratio of EC50, TNFα release): 3-4

**Q.** With `NCCC(O)(P(=O)(O)O)P(=O)(O)O` [pamidronate] as the compound, how does the “increase in γδ T cell count” value [2] read?
**A.** ≤ 2 fold

**Q.** With `CC(O)(CBr)CCOP(=O)(O)OP(=O)(O)O` (stereo not drawn) [BrHPP, 3-(bromomethyl)-3-butanol-1-yl-diphosphate] as the compound, how does the EC50 ([1]; Homo sapiens, T-cell, prior assays, calibrated cells, read-out: EC50 in prior assays with calibrated cells using a BrHPP-standard composition) read?
**A.** ~15 nM

**Q.** For `C/C(=C\COP(=O)(O)OP(=O)(O)O)CO` [HDMAPP, (E)-4-hydroxy-3-methyl-2-butenyl pyrophosphate], which EC50 [1, 3] is on record?
**A.** 2.1 nM
